Results: patent US7625917B2, “Thiolesters and uses thereof” (priority 1998, dated 2009)
Like-named read-outs stand apart in the source and are kept apart here.

How the values were obtained:
[1] = molecular target: T1, recombinant HIV-1 NCp7 protein (Human immunodeficiency virus type 1 group M subtype B, UniProt P03347); experiment: Trp37 zinc finger fluorescence (zinc ejection) assay; type: biochemical
T1 construct: recombinant HIV-1 NCp7 protein
Procedure: Zinc finger reactivity was measured using a Zn specific fluorochrome, TSQ, N-(6-methoxy-8-quinolyl)-p-toluenesulfonamide, assay or a Trp37 zinc finger fluorescence assay. Fluorescent measurements of the Trp37 residue in the C-terminal finger of recombinant HIV-1 NCp7 protein were performed as described by Rice (1995) Science 270:1194-1197; Rice (1997) Antimicrob. Agents Chemother. 41:419-426. Measurement of Zn ejection from both fingers was measured using the Zn-selective fluorchrome probe TSQ (Molecular Probes, Eugene Oreg.) as described by Rice (1996) J. Med. Chem 39:3606-3616. […] Briefly, 50 nM NCp7 was treated with test compounds for 1 hour at RT in […] buffer containing 10% glycerol and 50 mM Tris-HCl (pH 7.5). Labeled oligomer (0.1 picomole, end labeled [^32P] was added in an equal volume of buffer containing 10% glycerol, 50 mM Tris-HCl (pH 7.5), 400 mM KCl and 40 mM MgCl2. The reaction was continued for 15 min at room temperature, and a total of […] (or ¼ of the total reaction volume) was separated on nondenaturing 4.5% polyacrylamide gels in 0.5× Tris-Borate electrophoresis buffer. NCp7-oligomer complexes were visualized by autoradiography.
Changes in the intrinsic fluorescence of aromatic protein moieties are commonly used to monitor a reaction which involves a change in protein conformation. In the present invention, fluorescence can be used to monitor the loss of metal ion from a zinc finger, e.g., the loss of zinc from a CCHC retroviral zinc finger protein, after contact with a thiolester of the invention. The intrinsic fluorescence of Trp37 in the second zinc finger of HIV-1 NC protein has been used to monitor nucleic acid binding and conformation of the zinc finger complex (see, Summers (1992) supra).
Zinc ejection is measured by the ability of compounds to chemically attack the cysteines in purified NCp7 protein resulting in a loss of fluorescence due to the. movement of the tryptophan 37 residue […] position on the protein. Zinc ejection is measured and expressed as either percent decrease in total fluorescence or decrease in relative fluorescence units per min during a 30 min assay (RFU/min). A thiolester is considered within the scope of the invention if any amount of zinc ejection is detected.

[2] = system: HIV-1RF; experiment: XTT cytoprotection assay (antiviral activity); type: cell-based
Description: One exemplary means to determine antiviral activity is with CEM-SS cells and virus (e.g., HIV-1RF) (MOI=0.01) using the XTT (2,3-bis[2-methoxy-4-nitro-5-sulfophenyl]-5-[(phenylamino)carbonyl]-2H-tetrazolium hydroxide) cytoprotection assay, as described by Rice (1993) PNAS 90:9721-9724, and Rice (1997) Antimicrob. Agents Chemother. 41:419-426. Briefly, cells are infected with HIV-1 RF (or other virus to be tested) in the presence of various dilutions of test compounds (thiolesters and controls). The cultures are incubated for seven days. During this time control cultures without protective compounds (i.e., compounds with anti-viral activity) replicate virus, induce syncytia, and result in about 90% cell death. The cell death is measured by XTT dye reduction. XTT is a soluble tetrazolium dye that measures mitochondrial energy output, similar to MTT. Positive controls using dextran sulfate (an attachment inhibitor) or 3′-Azido-2′-3′-dideoxythymidine, AZT (a reverse transcriptase inhibitor) are added to each assay. Individual assays are done in duplicate using a sister plate method.
Effective antiviral concentrations providing 50% cytoprotection (EC50), and cellular growth inhibitory concentrations causing 50% cytotoxicity (IC50) are calculated.

[3] = system: CEM-SS cells; experiment: cells; type: cell-based; conditions: for cellular toxicity (in words): high test dose of 316 μM
Procedure: Agents Chemother. […] Briefly, cells are infected with HIV-1 RF (or other virus to be tested) in the presence of various dilutions of test compounds (thiolesters and controls). The cultures are incubated for seven days. […] The cell death is measured by XTT dye reduction. XTT is a soluble tetrazolium dye that measures mitochondrial energy output, similar to MTT. Positive controls using dextran sulfate (an attachment inhibitor) or 3′-Azido-2′-3′-dideoxythymidine, AZT (a reverse transcriptase inhibitor) are added to each assay. Individual assays are done in duplicate using a sister plate method.

[4] = Table 3, average decrease in relative fluorescence
[5] = read-out: EC50 (concentration inhibiting 50% virus replication)
[6] = Table 3, 50% cytotoxicity, read-out: IC50
[7] = Table 4, 50% cytotoxicity, read-out: IC50
[8] = Table 5, average decrease in relative fluorescence units over 30 min
[9] = Table 5, 50% cytotoxicity, read-out: IC50
[10] = Table 6, average decrease in relative fluorescence units over 30 min
[11] = Table 6, 50% cytotoxicity, read-out: IC50
[12] = Table 10, average decrease in relative fluorescence units over 30 min
[13] = Table 10, 50% cytotoxicity, read-out: IC50

## NS(=O)(=O)c1ccc(CNC(=O)c2ccccc2SSc2ccccc2C(=O)NCc2ccc(S(N)(=O)=O)cc2)cc1 [Compound 23 D, N,N′-(2,2′-dithiodibenzoyl)-bis-4-(aminomethyl)benzene-sulfonanide]
[1]
  zinc finger reactivity / zinc ejection rate: 3.3 RFU/min
[2]; Table 2, read-out: EC50
  EC50: 0.33 µM
[3]; read-out: toxicity / IC50
  IC50: 19.4 µM

## NS(=O)(=O)c1ccc(NC(=O)CNC(=O)c2ccccc2SSc2ccccc2C(=O)NCC(=O)Nc2ccc(S(N)(=O)=O)cc2)cc1 [Compound 25 D, N,N′-(2,2′-dithiodibenzoyl)-bis-4-(glycinamido)benzenesulfonamide]
[1]
  zinc finger reactivity / zinc ejection rate: 7.9 RFU/min
[2]; Table 2, read-out: EC50
  EC50: 1.6 µM
[3]; Table 2, 50% cytotoxicity, read-out: IC50
  IC50: 17.6 µM

## Nc1ccc(S(=O)(=O)c2ccc(NC(=O)c3ccccc3SSc3ccccc3C(=O)Nc3ccc(S(=O)(=O)c4ccc(N)cc4)cc3)cc2)cc1 [Compound 26 D]
[1]
  zinc finger reactivity / zinc ejection rate: 3.3 RFU/min
[1]; [4]
  Zinc Finger Reactivity RFU/min: 3.3 RFU/min
[2]; Table 3, read-out: EC50
  EC50: 4.3 µM
[2]; [5]
  EC50: 4.3 µM
[3]; [6]
  IC50: < 316 µM

## CC(=O)Nc1ccc(S(=O)(=O)c2ccc(NC(=O)c3ccccc3SSc3ccccc3C(=O)Nc3ccc(S(=O)(=O)c4ccc(NC(C)=O)cc4)cc3)cc2)cc1 [Compound 27 D]
[1]
  zinc finger reactivity / zinc ejection rate: 5.9 RFU/min
[1]; [4]
  Zinc Finger Reactivity RFU/min: 5.9 RFU/min
[2]; Table 3, read-out: EC50
  EC50: 1.5 µM
[2]; [5]
  EC50: 1.5 µM
[3]; read-out: toxicity / IC50
  IC50: 160 µM

## CC(=O)Nc1ccc(S(=O)(=O)Nc2ccc(S(=O)(=O)c3ccc(-n4sc5ccccc5c4=O)cc3)cc2)cc1 [Compound 28 BITA]
[1]; [4]
  Zinc Finger Reactivity RFU/min: 7.9 RFU/min
[2]; Table 3, read-out: EC50
  EC50: 9.6 µM
[3]; [6]
  IC50: 188 µM

## CC(=O)Nc1ccc(S(=O)(=O)Nc2ccc(S(=O)(=O)c3ccc(NC(=O)c4ccccc4SSc4ccccc4C(=O)Nc4ccc(S(=O)(=O)c5ccc(NS(=O)(=O)c6ccc(NC(C)=O)cc6)cc5)cc4)cc3)cc2)cc1 [Compound 28 D]
[1]; [4]
  Zinc Finger Reactivity RFU/min: 5.9 RFU/min
[2]; Table 3, read-out: EC50
  EC50: 1 µM
[3]; [6]
  IC50: 12.7 µM

## O=c1c2ccccc2sn1-c1ccc(S(=O)(=O)c2ccc([N+](=O)[O-])cc2)cc1 [Compound 31 BITA]
[1]; [4]
  Zinc Finger Reactivity RFU/min: 4.1 RFU/min
[2]
  antiviral activity (in words): without antiviral activity
[3]; [6]
  IC50: > 316 µM

## O=C(Nc1ccc(S(=O)(=O)c2ccc([N+](=O)[O-])cc2)cc1)c1ccccc1SSc1ccccc1C(=O)Nc1ccc(S(=O)(=O)c2ccc([N+](=O)[O-])cc2)cc1 [Compound 31 D]
[1]; [4]
  Zinc Finger Reactivity RFU/min: 2.9 RFU/min
[2]
  EC50 increase vs compound 26: 2.6 fold
[2]; [5]
  EC50: 12.2 µM
[3]; [6]
  IC50: > 316 µM
[3]
  cellular toxicity (in words): non-toxic
[3]; listed as 31
  cellular toxicity (in words): no toxicity

## O=C(Nc1ccc(S(=O)(=O)c2ccc(NC(=O)c3ccccc3SSc3ccccc3C(=O)Nc3ccc(S(=O)(=O)c4ccc(NC(=O)c5ccc([N+](=O)[O-])cc5)cc4)cc3)cc2)cc1)c1ccc([N+](=O)[O-])cc1 [Compound 32 D]
[1]; [4]
  Zinc Finger Reactivity RFU/min: 2.9 RFU/min
[2]; Table 3, read-out: EC50
  EC50: 78 µM
[3]; [6]
  IC50: > 316 µM

## O=c1c2ccccc2sn1-c1ccc(S(=O)(=O)c2ccc(NS(=O)(=O)Cc3ccccc3[N+](=O)[O-])cc2)cc1 [Compound 34 BITA]
[1]; [4]
  Zinc Finger Reactivity RFU/min: 2 RFU/min
[2]
  antiviral activity (in words): significant antiviral activity
[2]; Table 3, read-out: EC50
  EC50: 3.2 µM
[3]; [6]
  IC50: 59.5 µM

## O=C(Nc1ccc(S(=O)(=O)c2ccc(NS(=O)(=O)Cc3ccccc3[N+](=O)[O-])cc2)cc1)c1ccccc1SSc1ccccc1C(=O)Nc1ccc(S(=O)(=O)c2ccc(NS(=O)(=O)Cc3ccccc3[N+](=O)[O-])cc2)cc1 [Compound 34 D]
[1]; [4]
  Zinc Finger Reactivity RFU/min: 1.5 RFU/min
[2]
  antiviral activity (in words): significant antiviral activity
[2]; [5]
  EC50: 12.3 µM
[3]; [6]
  IC50: > 316 µM
[3]
  cellular toxicity (in words): no toxicity

## Nc1cccc(S(=O)(=O)c2cccc(NC(=O)c3ccccc3SSc3ccccc3C(=O)Nc3cccc(S(=O)(=O)c4cccc(N)c4)c3)c2)c1 [Compound 35]
[1]
  zinc finger reactivity / zinc ejection rate: 0.92 RFU/min
[3]; [7]
  IC50: 81.5 µM

## CC(=O)Nc1cccc(S(=O)(=O)c2cccc(NC(=O)c3ccccc3SSc3ccccc3C(=O)Nc3cccc(S(=O)(=O)c4cccc(NC(C)=O)c4)c3)c2)c1 [Compound 36]
[1]
  zinc finger reactivity / zinc ejection rate: 2 RFU/min
[3]; [7]
  IC50: 5.9 µM

## CC(=O)NS(=O)(=O)c1ccc(NC(=O)c2ccccc2NC(=O)CCCl)cc1 [Compound 37, N-[2-(3-chloro-propionamido)benzoyl]sulfacetamide]
[1]
  zinc finger reactivity (in words): modest zinc finger reactivity
[1]; [8]
  Zinc Finger Reactivity RFU/min: 2.0 RFU/min
[2]
  antiviral activity (in words): neither had appreciable antiviral activity
[3]; [9]
  IC50: >316 µM

## CC(=O)NS(=O)(=O)c1ccc(NC(=O)c2cccc(NC(=O)CCCl)c2)cc1 [Compound 38]
[1]
  zinc finger reactivity (in words): modest zinc finger reactivity
[1]; [8]
  Zinc Finger Reactivity RFU/min: 3.9 RFU/min
[2]
  antiviral activity (in words): neither had appreciable antiviral activity
[2]; Table 5, read-out: EC50
  EC50: 38 µM
[3]; [9]
  IC50: 103 µM

## CC(=O)NS(=O)(=O)c1ccc(NC(=O)c2ccccc2NC(=O)CCl)cc1 [Compound 39]
[1]; [8]
  Zinc Finger Reactivity RFU/min: 0.3 RFU/min
[2]
  antiviral activity (in words): completely inactive
[3]; [9]
  IC50: 202 µM

## CC(=O)NS(=O)(=O)c1ccc(NC(=O)c2ccccc2SC(C)=O)cc1 [Compound 40]
[1]; [8]
  Zinc Finger Reactivity RFU/min: 4.2 RFU/min
[2]; Table 5, read-out: EC50
  EC50: 2.8 µM
[3]; [9]
  IC50: 56.7 µM
[3]; read-out: IC50 range
  IC50: ~50 µM

## CC(=O)NS(=O)(=O)c1ccc(NC(=O)c2ccccc2SC(=O)c2ccccc2)cc1 [Compound 41]
[1]; [8]
  Zinc Finger Reactivity RFU/min: 2.2 RFU/min
[2]; Table 5, read-out: EC50
  EC50: 2.6 µM
[3]; [9]
  IC50: 45.7 µM
[3]; read-out: IC50 range
  IC50: ~50 µM

## COc1ccc(C(=O)Sc2ccccc2C(=O)Nc2ccc(S(=O)(=O)NC(C)=O)cc2)cc1 [Compound 42]
[1]; [8]
  Zinc Finger Reactivity RFU/min: 3.5 RFU/min
[2]; Table 5, read-out: EC50
  EC50: 2.8 µM
[3]; [9]
  IC50: 43.7 µM
[3]; read-out: IC50 range
  IC50: ~50 µM

## O=C(CCCCBr)Sc1ccccc1C(=O)Nc1ccc(S(=O)(=O)c2ccc([N+](=O)[O-])cc2)cc1 [Compound 46]
[1]; [10]
  Zinc Finger Reactivity RFU/min: 1 RFU/min
[2]; Table 6, read-out: EC50 %
  EC50: 1.6 µM
[3]; [11]
  IC50: 21.7 µM

## O=C(CCCCBr)Sc1ccccc1C(=O)Nc1ccc(S(=O)(=O)c2ccc(NS(=O)(=O)Cc3ccccc3[N+](=O)[O-])cc2)cc1 [Compound 49]
[1]; [10]
  Zinc Finger Reactivity RFU/min: 1.9 RFU/min
[3]; [11]
  IC50: > 316 µM

## CC(=O)NS(=O)(=O)c1ccc(NC(=O)c2ccccc2SC(=O)CCC[n+]2ccccc2)cc1 [Compound 54]
[1]; [12]
  Zinc Finger Reactivity RFU/min: 2.2 RFU/min
[2]; Table 10, read-out: EC50 %
  EC50: 10.1 µM
[3]; [13]
  IC50: 175 µM

## CC(=O)NS(=O)(=O)c1ccc(NC(=O)c2ccccc2SC(=O)CCCCC[n+]2ccccc2)cc1 [Compound 55]
[1]; [12]
  Zinc Finger Reactivity RFU/min: 1.9 RFU/min
[2]; Table 10, read-out: EC50 %
  EC50: 10.5 µM
[3]; [13]
  IC50: 69.7 µM

## CC(=O)NS(=O)(=O)c1ccc(NC(=O)c2ccccc2NC(=O)CCCC[n+]2ccccc2)cc1 [Compound 56]
[1]; [12]
  Zinc Finger Reactivity RFU/min: 2.6 RFU/min
[2]
  antiviral activity (in words): inactive
[3]; [13]
  IC50: >316 µM
